Data: patent US6737407B1, “Treatment of obesity” (Metabolic Pharmaceuticals, Ltd., priority 1997, dated 2004)
Where no end group is shown, it is not given here.

Columns and labels:
C57BL/6J (ob/ob) mice = assay: Chronic 18-day treatment of obese mice with hGH 177-191: body weight gain, food consumption, adipose tissue weight; type: in vivo, mouse; details: for Initial body wt.: treated group, before 18-day daily i.p. 200 μg/kg
Procedure: FIGS. 1A & 1B show the effect of hGH 177-191 peptide on cumulative body weight gains in male (1A) and female (1B) C57BL/6J (ob/ob) mice during the 18-day treatment period. Animals were given a daily intraperitoneal injection of 0.1 ml of either saline or hGH 177-191 (200 μg/kg body weight). Each points represents the mean±SEM of 6 animals.
FIGS. 2A & 2B show the average daily food consumption (g/mouse/day) of C57BL/6J (ob/ob) mice during an 18day treatment period with hGH 177-191. The treatment for the four groups of animals was as described in FIGS. 1A & 1B. Each point represents the mean±SEM of 6 animals.
The animals of the same age and same sex were randomly divided into two groups, housed 6 per cage and maintained on a normal 12-hr light/dark cycle at a constant room temperature of 25° C. in the animal house of the Department of Biochemistry and—Molecular Biology, Monash University, Clayton, Australia. Animals were fed ad libitum on pre-determined quantity of animal pellets (Clark King, Melboume, Australia) and allowed free access to water at all times. The animals were given a daily intraperitoneal (i.p) injection of 0.1 ml of either the synthetic peptide (200-500 μg/kg body weight) or equivalent volume of physiological saline (0.9% sodium chloride) for appropriate number of days. The i.p. injection was administered with a 30G×½″ (0.31×13 mm) needle on a 1-ml disposable tuberculin syringes, and the site of injection was the lower left quadrant of the abdomen of the animals. To study the effects of controlled-delivery of hGH 177-191 and analogues, slow-release peptide-pellets in a diameter of 3 mm were implanted intradermally in the abdominal region of Zucker rats under anaesthesia. The body weight and food intake were monitored for the periods of time as indicated.
Cumulative weight gain and food consumption were determined at 3-day intervals by the measurements of body weight and uneaten food remaining in the cages. The animals were placed in a covered chamber to minimise movement during the weighing procedure. The food consumption data were obtained by subtracting the amount of uneaten food remaining in the cages from the original provision.
The procedure for the isolation and measurement of intact epididymal fat pads was established in previous studies of epididymal growth of GH-deficient (lit/lit) mice. In the present study, white adipose tissues, either whole epididymal or parametrical fat pads, were excised with the identical techniques as previously described^22 from the mice immediately after sacrifice. The tissues were washed in cold physiological saline, blotted and weighed. For ex vivo lipogenic assays, the portions of adipose tissues without blood vessels were used.

[1] = system: adipose tissue of the C57BL/6J (ob/ob) mice; assay: Ex vivo lipolysis in adipose tissue of treated ob/ob mice (glycerol release); parameters: species or system mouse; details: both sexes, ob/ob mice after 18-day treatment
Procedure: FIGS. 6A & 6B depict the ex vivo effect on lipolysis in adipose tissue of the C57BL/6J (ob/ob) male mice (6A) and female mice (6B) after 18-days treatment with hGH 177-191. […] Values are mean±SEM of 12 determinations from 6 animals of each group. The differences between the hGH 177-191 treated and saline control groups were statistically significant.
(§1) Adipose tissues were removed from animals and sliced into segments of approximately 200 mg each. Then the tissues were pre-incubated in 25 ml vials containing 2 ml of Krebs-Ringerbicarbonate (KRB) buffer, 4% defatted BSA and 5.5 mM glucose under an atmosphere of carbogen (95%O2/ 5%CO2) at 37° C. for 1 hour. Tissues were then transferred to another vials with fresh medium and the incubation was initiated by adding hGH 177-191 peptide or analogues into the vials. The mixtures were then incubated at 37° C. for 90 minutes. After incubation, the tissues wee removed and aliquots (200 μl) of samples withdrawn from the medium were assayed for the contents of glycerol or free fatty acid (FFA) either by the enzyme assay (glycerol kinase) or calorimetric (copper-dye) spectrometry. The NADH or color produced was then monitored by the absorption at 340 nm and 610 nm, respectively.

Porcine adipose Tissue = assay: Lipolytic activity in porcine adipose tissue; type: cell-based, pig; details: 0.5 μM peptide
Procedure: as §1
Since corresponding sequences of non-human mammals are effectively peptide variants of the human sequence, it is also therefore expected that those corresponding sequences will be effective in other mammals including humans.

[2] = system: isolated adipose tissues of C57BL/6J (ob/ob) mice; assay: Oxidation of free fatty acid in isolated adipose tissues; type: cell-based, mouse; details: adipose tissues isolated from obese animals, FIG. 7
Procedure: FIG. 7 illustrates the in vitro effect of hGH 177-191 on fatty acid oxidation in isolated adipose tissues of C57BL/6J (ob/ob) mice with the determination of the rate of [C^14]O2 production from [C^14]-palmitic acid. The rate of [C^14]-palmitic acid oxidation was expressed as μmol/g tissue/hr.
The effect of hGH 177-191 or analogues on the free fatty acid (FFA) oxidation in the adipose tissues is evaluated by the measure of converted [C^14]O2 from C^14-palmitic acid. The [C^14]O2 a final product of FFA oxidation, was trapped by hyamine hydroxide and measured by liquid scintillation counter. The rate of FFA oxidation was then determined by [C^14] radioactivity.
Adipose tissues removed from laboratory animals were sliced into segments of approximately 200 mg each. The tissues in 25 ml vials containing 2 ml of Krebs-Ringer phosphate (KRP) buffer, and 2% defatted bovine serum albumin (BSA) were pre-incubated at 37° C. for 30 minutes under an atmosphere of carbogen (95%O2/5%CO2) Then the tissues were transferred to Konte flasks with fresh incubation medium with 0.15 mM sodium [C^14]-palmitate (final [C^14]-specific activity, 0.20 μCi/μmol) and hGH 177-191 peptide or analogues (1-1000 nM). […] The [C^14] radioactivity was measured with a liquid scintillation counter. The rate of [C^14]-palmitic acid oxidation to [C^14]O2 was calculated and expressed as μmol/g tissue/hr.

[3] = female ob/ob mice, 18-day daily i.p. 200 μg/kg
[4] = male ob/ob mice, 18-day daily i.p. 200 μg/kg

For “LRIVQCRSVEGSCGF (cysteine pairing not given here) [Ref No. 9401]”, the “average daily body weight gain lower than control” value (C57BL/6J (ob/ob) mice; both male and female ob/ob mice) was “approximately 27%”, the “Adipose tissue (intact parametrical fat pads)” value (C57BL/6J (ob/ob) mice; [3]) was 3.26 g and the Body wt. gain (C57BL/6J (ob/ob) mice; [3]) was 4.0 g. For the same sequence, the Final body wt. (C57BL/6J (ob/ob) mice; [3]) was 52.2 g, the “daily body weight gain” value (C57BL/6J (ob/ob) mice; [3]) was 0.22 ± 0.04 g/day and the “reduction of adipose tissue weight versus control” value (C57BL/6J (ob/ob) mice; female ob/ob mice, parametrical fat pads) was ≤ 12%. For the same sequence, the Initial body wt. (C57BL/6J (ob/ob) mice; female ob/ob mice) was 48.2 g, the “cumulative body weight gain versus control (in words)” value (C57BL/6J (ob/ob) mice; male and female ob/ob mice, 18-day daily i.p. 200 μg/kg) was “clear reduction” and the “average daily food consumption versus control (in words)” value (C57BL/6J (ob/ob) mice; male and female ob/ob mice, 18-day treatment) was “no significant difference”. For the same sequence, the “Adipose tissue (intact epididymal fat pads)” value (C57BL/6J (ob/ob) mice; [4]) was 2.52 ± 0.25 g, the Body wt. gain (C57BL/6J (ob/ob) mice; [4]) was 2.9 ± 0.6 g and the Final body wt. (C57BL/6J (ob/ob) mice; [4]) was 51.5 ± 2.3 g. The “daily body weight gain” value (C57BL/6J (ob/ob) mice; [4]) was 0.16 ± 0.04 g/day, the “reduction of adipose tissue weight versus control” value (C57BL/6J (ob/ob) mice; male ob/ob mice, epididymal fat pads) was “up to 20%” and the Initial body wt. (C57BL/6J (ob/ob) mice; male ob/ob mice) was 48.6 ± 2.0 g. The “lipolytic activity in adipose tissues of treated animals (in words)” value [1] was “increase significantly”, the Glycerol released (Porcine adipose Tissue) was 1300 ± 160 nmol/mg tissue/hour and the “oxidation of fatty acids (in words)” value [2] was “enhanced”.
